What all share (type): cell-based, human
The nature of series [1]: Cytotoxicity assay (7-AAD, flow cytometry). As to conditions: human, Jurkat cells; Jurkat, 24 h incubation. Here is the method:
(§1) The human cell lines Jurkat, K562, U937, and HEK293 were obtained from the European Collection of Authenticated Cell Cultures (ECACC) and subsequently cultured in accordance with established standard protocols and sterile techniques. […] Subsequently, the cells were seeded into 24-well plates at a density of 5 × 10^4 cells per well and incubated for 12 h (Jurkat, K562, U937) and 24 h (HEK293).
(§2) The viability of the cells was evaluated through the utilization of the 7-AAD (7-aminoactinomycin D) dye (eBioscience™, San Diego, CA, USA). Following a 24 h incubation period with the test substances, the cells were washed with phosphate-salt buffer (PBS) and centrifuged at 400× g for five minutes. […] Subsequently, all cell samples were subjected to analysis on a NovoCyte Penteon flow cytometer (Agilent, Santa Clara, CA, USA).

A short description of series [2]: Cytotoxicity assay (7-AAD, flow cytometry). The note with it: human. Here is the method: (§3) The human cell lines Jurkat, K562, U937, and HEK293 were obtained from the European Collection of Authenticated Cell Cultures (ECACC) and subsequently cultured in accordance with established standard protocols and sterile techniques. The cells were maintained in RPMI 1640 (for Jurkat, K562, and U937) or DMEM (for HEK293) medium, both of which were supplemented with […], 10% FBS (Sigma, Kanagawa, Japan), and 100 units/mL penicillin-streptomycin (Sigma). Subsequently, the cells were seeded into 24-well plates at a density of 5 × 10^4 cells per well and incubated for 12 h (Jurkat, K562, U937) and 24 h (HEK293).
(§4) The viability of the cells was evaluated through the utilization of the 7-AAD (7-aminoactinomycin D) dye (eBioscience™, San Diego, CA, USA). Following a 24 h incubation period with the test substances, the cells were washed with phosphate-salt buffer (PBS) and centrifuged at 400× g for five minutes. The precipitate was resuspended in 200 μL of flow cytometry buffer (PBS without calcium and magnesium, 2.5% FBS) and incubated with a 1 mM 7-AAD dye solution for 15 min in the dark at room temperature. Subsequently, all cell samples were subjected to analysis on a NovoCyte Penteon flow cytometer (Agilent, Santa Clara, CA, USA).
On the technique in general: A flow cytometer gives signals particle by particle.

Series [3] deals with Jurkat cells. Kind of series: Cell cycle analysis (MAK344 kit, flow cytometry). As to conditions: compound at CC50, 24 h. Here is the method:
Cell cycle analysis was performed using the MAK344 cell cycle assay kit (Sigma-Aldrich, St. Louis, MO, USA). Immediately after incubation with the tested compounds for 24 h, cells were gently washed with ice-cold phosphate-buffered saline (PBS) and centrifuged at 450× g for 5 min. After removing the supernatant, the cell precipitate was resuspended and fixed with 70% ethanol with continuous shaking on ice, and then stored at −18 degrees Celsius for 24 h. Prior to staining, the cells were washed with ice-cold PBS, and then 0.5 mL of the Cell Cycle Assay Kit working solution was added to the cell suspension at room temperature in the dark according to the working protocol. Samples were then analyzed on a NovoCyte Penteon flow cytometer (Agilent, USA).

For another series, the system named is Jurkat. Briefly: Cytotoxicity assay (7-AAD, flow cytometry). As for the experimental part:
as §1, §2

Series [4] concerns Jurkat cells. Kind of series: MILLIPLEX MAP 7-plex DNA Damage/Genotoxicity Magnetic Bead Kit (Luminex). The text has this: (§5) In this study, we employed Luminex technology (MILLIPLEX® MAP 7-plex DNA Damage/Genotoxicity Magnetic Bead Kit and MILLIPLEX® MAP Early Apoptosis 7-plex Magnetic Bead Kit) to analyze protein analytes in Jurkat cell lysates. […] The Luminex xMAP intracellular protein assay is a multiplex multiparameter assay that employs a multiplex of fluorescent-labeled antibodies and magnetic particles to enhance the sensitivity, dynamic range, and accuracy of the analytical method. Luminex technology is employed to identify the proteins of interest present in each well. The mean fluorescence intensity (MFI) of each measured protein is then converted to its concentration (pg·mL^−1) using specialized software and standard curves.
(§6) The test substances were incubated with the cells at two concentrations, […], for a period of six hours. […] Following exposure, approximately 1 × 10⁶ cells from each well were transferred to 0.5-mL tubes (Eppendorf, Hamburg, Germany) and washed with PBS. Subsequently, the PBS was removed, 10 μL of lysis buffer (Cell Signaling Buffer and Detection Kit, Luminex, Austin, TX, USA) supplemented with 2 × protease and phosphatase inhibitors (Luminex, USA) was added, and the mixture was shaken for 30 s. A cocktail of fluorescence-encoded magnetic bead microspheres (MagPlex®, Luminex, USA) was resuspended and treated with ultrasound. Subsequently, 70 μL of this cocktail, 70 μL of protein standard, and 70 μL of the test sample were added to the wells of a 96-well microplate and incubated for 2 h at room temperature with stirring on an orbital shaker at 700–850 rpm. A magnetic plate was firmly attached to the bottom of a 96-well plate, and all wells were washed three times with 100 μL of wash buffer (Cell Signaling Buffer and Detection Kit, Luminex, USA) added to each well to remove unbound particles. Subsequently, 50 μL of […] to each well, and the samples were incubated for one hour at 4 °C on an orbital shaker set at 700–850 rpm. Subsequently, the samples were washed once more to remove any unbound antibodies. Afterwards, 70 μL of streptavidin-phycoerythrin (streptavidin-PE) (Luminex, USA) was added to each well and incubated for 30 min at room temperature on a shaker at 600 rpm. Subsequently, the samples were washed with streptavidin-PE and resuspended in 100 μL of wash buffer for a period of 2 min on a shaker at 800 rpm. The data were analyzed using the Milliplex Analyst 5.1 software (EMD Millipore, Billerica, MA, USA).

Series [5] concerns Jurkat cells. Briefly: MILLIPLEX MAP Early Apoptosis 7-plex Magnetic Bead Kit (Luminex). The note with it: 6 h; for Casp 8 protein level: activated caspase-8.
Source text: as §5, §6

The next series relates to HEK293. Briefly: Cytotoxicity assay (7-AAD, flow cytometry). As to conditions: Homo sapiens; HEK293, abstract. Here is the method:
as §3, §4

A further series concerns K562. Kind of series: Cytotoxicity assay (7-AAD, flow cytometry). As to conditions: Homo sapiens; K562, abstract. Here is the method: as §3, §4
The subject of the next series is U937. Kind of series: Cytotoxicity assay (7-AAD, flow cytometry). As to conditions: Homo sapiens, U-937; U937, abstract. As for the experimental part:
as §3, §4

[6] abbreviates: HEK293 cells, HEK293, 24 h incubation.
[7] abbreviates: K562 cells, K562, 24 h incubation.
The mark [8] stands for this setting: U937 cells, U937, 24 h incubation.
The mark [9] stands for this setting: 6 h, at CC50 (anisomycin at IC50 0.192 μmol/L), ATR (total).
Where [10] appears, read: 6 h, at CC50 (anisomycin at IC50 0.192 μmol/L), CHK1 (S345).
[11] abbreviates: 6 h, at CC50 (anisomycin at IC50 0.192 μmol/L), CHK2 (T68).
The mark [12] stands for this setting: 6 h, at CC50 (anisomycin at IC50 0.192 μmol/L), H2AX (S139).
Where [13] appears, read: 6 h, at CC50 (anisomycin at IC50 0.192 μmol/L), MDM2 (total).
Setting [14] is: 6 h, at CC50 (anisomycin at IC50 0.192 μmol/L), p21 (total).
Where [15] appears, read: 6 h, at CC50 (anisomycin at IC50 0.192 μmol/L), p53 (S15), genotoxicity panel.
Where [16] appears, read: at CC50 (anisomycin at IC50 0.192 μmol/L), BAD (S112).
[17] abbreviates: at CC50 (anisomycin at IC50 0.192 μmol/L), BCL-2 (S70).
[18] abbreviates: at CC50 (anisomycin at IC50 0.192 μmol/L), JNK/SAPK1 (T183/Y185).
Where [19] appears, read: at CC50 (anisomycin at IC50 0.192 μmol/L).
Setting [20] is: at CC50 (anisomycin at IC50 0.192 μmol/L), activated caspase-9.
Setting [21] is: at CC50 (anisomycin at IC50 0.192 μmol/L), p53 (S46), apoptosis panel.

The structures appear in SMILES notation. Like-named read-outs stand apart in the source and are kept apart here.

What is called CC50 is the concentration that lowers cell viability or growth by half. A low value points to greater toxicity to the cells. Turning to `CC(=O)O[C@H]1CC[C@@]2(C)C(CC[C@]3(C)C2CC=C2C4CC(C)(C)CC[C@]4(C(=O)Nc4ccnn4C)CC[C@]23C)C1(C)C` (stereo partly drawn) [compound 7a], the half-maximal cytotoxic concentration (CC50) at 24 h is 22.1 ± 1.96 µM in series [1], 58.4 ± 6.02 µM in series [2] (setting [6]), 17.7 ± 1.39 µM in series [2] (setting [7]) and 14.4 ± 1.04 µM in series [2] (setting [8]). Besides, in the series on Jurkat cells [3], the “cell population in the S-phase (Freq S)” value came to 48.89%. The “percentage of cells in the G2/M phase (Freq G2)” value with Jurkat cells [3] is reported as 1.91%.

As usually defined, the IC50 is the concentration needed to halve the response being measured. As to `COc1ccc(C[C@H]2NC[C@H](O)[C@H]2OC(C)=O)cc1` [Anisomycin, anisomycin, reference compound], the half-maximal inhibitory concentration (IC50) in the series with Jurkat (Jurkat cells, concentration used for the control compound, read-out: IC50) is 0.192 µM. Moreover, the ATR protein level in the series with Jurkat cells [4] (setting [9]) is on record as 440 % of control. In the series on Jurkat cells [4] (setting [10]), the Chk1 protein level is 610 % of control. Also, the Chk2 protein level in the series on Jurkat cells [4] (setting [11]) is reported as 20836 % of control. Moreover, in the series on Jurkat cells [4] (setting [12]), the H2A.X protein level is 1841 % of control. The MDM2 protein level in the series with Jurkat cells [4] (setting [13]) is reported as 367 % of control. For the same compound, in the series on Jurkat cells [4] (setting [14]), the p21 protein level is recorded as 3727 % of control. In addition, the figures for the p53 protein level in the series on Jurkat cells [4] (setting [15]) and in the series on Jurkat cells [5] (setting [21]) were 738 % of control and 17 % of control, respectively. Also, in the series on Jurkat cells [5] (at CC50 (anisomycin at IC50 0.192 μmol/L), AKT/PKB (S473)), the Akt protein level is 129 % of control. Further, the Bad protein level in the series on Jurkat cells [5] (setting [16]) is on record as 486 % of control. In addition, the Bcl-2 protein level with Jurkat cells [5] (setting [17]) is recorded as 3180 % of control. Besides, the JNK protein level in the series with Jurkat cells [5] (setting [18]) was 357 % of control. The “Casp 8 protein level” value in the series with Jurkat cells [5] (setting [19]) is on record as 1229 % of control. For the same compound, the Casp9 protein level in the series with Jurkat cells [5] (setting [20]) is on record as 9353 % of control.

Regarding `Cn1nccc1NC(=O)[C@]12CCC(C)(C)C[C@H]1C1=CC[C@@H]3[C@@]4(C)CC[C@H](OC(=O)CCC/C=C\CC/C=C\CCCC(=O)O)C(C)(C)[C@@H]4CC[C@@]3(C)[C@]1(C)CC2` [compound 9a], the CC50 at 24 h in series [1] stood at 4.51 ± 0.41 µM; in series [2] (setting [6]), 26.2 ± 1.93 µM; in series [2] (setting [7]), 3.09 ± 0.34 µM; in series [2] (setting [8]), 2.85 ± 0.34 µM. The concentration for half-maximal inhibition (IC50) was 4.5 µM with Jurkat (Homo sapiens, Jurkat, abstract, read-out: IC50 Jurkat); 26.2 µM in the series with HEK293; 3.1 µM with K562; 2.8 µM in the series on U937. In addition, in the series on Jurkat cells [3], the “cell population in the S-phase (Freq S)” value was 46.10%. Besides, in the series on Jurkat cells [3], the “percentage of cells in the G2/M phase (Freq G2)” value amounted to 3.96%. Besides, in the series on Jurkat cells [3], the “percentage of cells in the pre-G0 phase (Freq Sub-G1)” value stood at 8.67%. Also, the ATR protein level in the series on Jurkat cells [4] (6 h, at 0,5CC50) is on record as 119 % of control; with Jurkat cells [4] (setting [9]), 131 % of control. The Chk1 protein level is recorded as 97 % of control in the series on Jurkat cells [4] (6 h, at 0,5CC50) and 144 % of control in the series with Jurkat cells [4] (setting [10]). Besides, the Chk2 protein level in the series with Jurkat cells [4] (6 h, at 0,5CC50) is recorded as 645 % of control; in the series on Jurkat cells [4] (setting [11]) it was 936 % of control. In addition, the H2A.X protein level is given as 2485 % of control with Jurkat cells [4] (6 h, at 0,5CC50) and 3173 % of control in the series on Jurkat cells [4] (setting [12]). Also, the MDM2 protein level is 115 % of control in the series on Jurkat cells [4] (6 h, at 0,5CC50) and 102 % of control in the series with Jurkat cells [4] (setting [13]). In addition, the p21 protein level in the series on Jurkat cells [4] (6 h, at 0,5CC50) is 318 % of control; with Jurkat cells [4] (setting [14]), 390 % of control. The p53 protein level in the series with Jurkat cells [4] (6 h, at 0,5CC50, genotoxicity panel) is reported as 52 % of control; in the series with Jurkat cells [4] (setting [15]), 128 % of control; in the series on Jurkat cells [5] (at 0,5CC50, apoptosis panel) it was 112 % of control; with Jurkat cells [5] (setting [21]), 160 % of control. Further, the “level of phosphorylated H2A.X in comparison to the control compound camptothecin” value in the series with Jurkat cells [4] (6 h, at 0.5CC50) was around 3.5 fold. In the series on Jurkat cells [4] (six hours), the “phosphorylated H2A.X, marker of DNA double-strand breaks” value is given as “dose-dependent increase”. Also, in the series with Jurkat cells [5] (at 0,5CC50), the Akt protein level was 15 % of control. The Bad protein level is given as 106 % of control in the series with Jurkat cells [5] (at 0,5CC50) and 55 % of control with Jurkat cells [5] (setting [16]). The Bcl-2 protein level is recorded as 140 % of control in the series on Jurkat cells [5] (at 0,5CC50) and 20 % of control with Jurkat cells [5] (setting [17]). In addition, the figures for the Casp9 protein level in the series with Jurkat cells [5] (at 0,5CC50) and with Jurkat cells [5] (setting [20]) were 1144 % of control and 1341 % of control, respectively. The JNK protein level in the series on Jurkat cells [5] (at 0,5CC50) is 78 % of control; with Jurkat cells [5] (setting [18]), 106 % of control. In addition, the “Casp 8 protein level” value in the series with Jurkat cells [5] (setting [19]) was 17 % of control.
